From article PMC5519620 (Frontiers in Cellular Neuroscience, 2017)
“Also recorded” adds a separate entry of the source.

How the values were obtained:
[1] = molecular target: mouse α9α10 nAChR (Mus musculus, UniProt B2RX82+G3X8Z7); assay: Agonist activation of mouse α9α10 nAChRs in Xenopus oocytes (two-electrode voltage clamp); format: biochemical; conditions: for Hill slope for activation / EC50: 95% confidence interval in parentheses, ACh n = 5, choline n = 4; for agonist behaviour (words): oocyte two-electrode voltage clamp, nicotine 100 nM to 10 mM; for EC50: oocytes, holding potential −70 mV
mouse α9α10 nAChR, sequence (G3X8Z7 23-479): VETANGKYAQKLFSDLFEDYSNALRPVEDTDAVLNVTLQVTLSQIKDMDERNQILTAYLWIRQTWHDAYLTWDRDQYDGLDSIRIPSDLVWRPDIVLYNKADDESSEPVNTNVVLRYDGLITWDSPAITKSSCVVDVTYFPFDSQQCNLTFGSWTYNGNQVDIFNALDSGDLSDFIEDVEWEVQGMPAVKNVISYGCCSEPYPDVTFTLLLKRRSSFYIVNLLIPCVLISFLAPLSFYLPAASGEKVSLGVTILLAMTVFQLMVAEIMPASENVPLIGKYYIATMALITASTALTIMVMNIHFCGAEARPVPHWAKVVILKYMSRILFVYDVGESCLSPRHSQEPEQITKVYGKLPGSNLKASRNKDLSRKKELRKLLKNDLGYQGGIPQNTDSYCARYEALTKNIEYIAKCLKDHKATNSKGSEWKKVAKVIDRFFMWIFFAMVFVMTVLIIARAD
mouse α9α10 nAChR, sequence (B2RX82 25-447): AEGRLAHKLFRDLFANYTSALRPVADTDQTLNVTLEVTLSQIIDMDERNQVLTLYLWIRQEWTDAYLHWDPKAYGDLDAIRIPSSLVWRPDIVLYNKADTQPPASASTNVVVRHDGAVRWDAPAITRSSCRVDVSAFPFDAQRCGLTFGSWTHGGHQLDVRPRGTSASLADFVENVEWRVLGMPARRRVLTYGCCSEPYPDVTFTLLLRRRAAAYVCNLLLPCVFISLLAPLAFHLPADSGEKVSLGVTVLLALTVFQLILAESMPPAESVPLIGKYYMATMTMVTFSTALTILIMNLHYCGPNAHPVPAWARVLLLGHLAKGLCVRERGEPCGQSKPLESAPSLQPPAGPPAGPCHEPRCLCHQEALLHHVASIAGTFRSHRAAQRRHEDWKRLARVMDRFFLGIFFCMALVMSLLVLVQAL
Procedure: X. laevis oocytes were injected with 25 ng of each cRNA encoding α9 and α10 subunits as previously described (Cartier et al., [1996]) and incubated for 48 h at 17°C in ND96 prior to use. Two-electrode voltage clamp electrophysiology was conducted to assess for functional expression of α9α10 nAChRs as previously described (Azam et al., [2008]). The oocyte membranes were clamped at a holding potential of −70 mV and stimulated with 1 s pulses of 1 mM ACh once every 60 s. After a steady-state response baseline was observed, the oocytes were then stimulated with ascending concentrations of ACh, choline, or nicotine. Each oocyte was stimulated first with ACh followed by choline then nicotine. The maximal response value for activation by ACh was determined using the Hill equation: Y = Bottom + (Top-Bottom)/(1+10^∧((LogEC50−X)*Hill slope)). The responses to all concentrations of ACh, choline, and nicotine were then normalized to this value and calculated as a % response.

[2] = tested on: α9α10 nAChR; conditions: MLA and α-bungarotoxin; no reference given; cited from earlier work
[3] = tested on: α9* nAChRs of monocytes; conditions: ref Hecker et al., 2015; Richter et al., 2016; Backhaus et al., 2017; cited from earlier work
[4] = tested on: CBA/CaJ mice; conditions: mouse, in vivo

SMILES: CC(=O)OCC[N+](C)(C)C [ACh, acetylcholine]
- ACh-evoked current amplitude ([1]; 1 mM ACh): > 10 μA
- Hill slope for activation [1]: 1.1 (0.8–1.4)
- agonist behaviour (words) [1]: activated; also recorded: induced robust currents
- EC50 [1]: 30.1 µM

SMILES: C[N+](C)(C)CCO [choline]
- Hill slope for activation [1]: 1.3 (0.5–2.1)
- agonist behaviour (words) [1]: activated
- agonist behaviour (words) ([1]; listed as Choline): behaved as a partial agonist relative to ACh; also recorded: potently activated α9α10 nAChRs
- EC50 [1]: 601 µM

SMILES: CCN1C[C@]2(COC(=O)c3ccccc3N3C(=O)C[C@H](C)C3=O)CC[C@H](OC)[C@@]34[C@@H]5C[C@H]6[C@H](OC)[C@@H]5[C@](O)(C[C@@H]6OC)[C@@](O)([C@@H](OC)[C@H]23)[C@@H]14 [methyllycaconitine (MLA), methyllycaconitine]
- α9α10 nAChR block [2]: potently block α9α10 nAChRs

SMILES: CN1CCC[C@H]1c1cccnc1 [nicotine]
- evoked current (% response relative to ACh maximum) ([1]; n = 4, nicotine): 0.4 ± 0.2%
- agonist behaviour (words) [1]: not by nicotine; also recorded: did not activate Xenopus oocyte-expressed mouse α9α10 nAChRs
- agonist behaviour (words) ([1]; listed as Nic): failed to evoke currents at concentration from 100 nM to 10 mM
- agonist behaviour (words) ([1]; listed as Nicotine): failed to evoke currents in all oocytes tested
- Agonist action on monocyte α9* nAChRs [3]: act as an agonist of α9^* nAChRs in immune cell monocytes

SMILES: O=C1[O][Pt]2([NH][C@@H]3CCCC[C@H]3[NH]2)[O]C1=O [oxaliplatin]
- Oxaliplatin-induced cold allodynia [4]: produced cold allodynia, an effect that significantly differed from control beginning by week three and continuing for 2 weeks post-oxaliplatin treatment
